Patent US20050197350A1, “Novel quinoline, tetrahydroquinazoline, and pyrimidine derivatives and methods of treatment related to the use thereof” (TAISHO PHARMACEUTICAL CO., LTD., priority 2003, published 2005)
Read-outs that look alike come from different tables or passages of the source.

Test system: MCH receptors
Experiment: MCH receptor activity class (method not given)
[1] = class by percent of control at 10^-7 M or IC50
[2] = activity class 1-3: percent of control at 10^-7 M or IC50
[3] = class 1-3 by percent of control at 10^-7 M or IC50
[4] = MCH receptor activity class 1-3 (percent of control at 10^-7 M or IC50)
[5] = activity class per percent of control at 10^-7 M or IC50
[6] = MCH receptor, class by percent of control at 10^-7 M or IC50

CN(C)c1ccnc(N[C@H]2CC[C@@H](NC(=O)c3c(F)c(F)c(F)c(F)c3F)CC2)n1 [compound 348]
class [1]: 3 (Class 3 The value of percent of control at 10^−7 M was more than 60% or the value of IC50 was more than 200 nM.)

Cc1c(NC(=O)N[C@H]2CC[C@@H](Nc3nc4c(c(N(C)C)n3)CCCC4)CC2)cccc1[N+](=O)[O-] [compound 1681]
class [2]: 3 (Class 3 The value of percent of control at 10^−7 M was more than 60% or the value of IC50 was more than 200 nM.)

CN(C)c1nc(N[C@H]2CC[C@@H](NC(=O)Cc3cccs3)CC2)nc2c1CCCC2 [compound 489]
class [3]: 3 (Class 3 The value of percent of control at 10^−7 M was more than 60% or the value of IC50 was more than 200 nM.)

CN(C)c1cc(N[C@H]2CC[C@@H](NCC(c3ccc(Cl)cc3)c3ccc(Cl)cc3)CC2)nc2ccccc12 [compound 1460]
class [1]: 3 (Class 3 The value of percent of control at 10^−7 M was more than 60% or the value of IC50 was more than 200 nM.)

CN(C)c1cc(N[C@H]2CC[C@@H](NC(=O)c3ccc(Br)s3)CC2)nc2ccccc12 [compound 673]
class [1]: 2 (Class 2: The value of percent of control at 10^−7 M was from 40% to 60% or the value of IC′50 was from 50 nM to 200 nM.)

COc1c(Br)cc(Br)cc1CNC[C@H]1CC[C@@H](Nc2cc(N(C)C)c3ccccc3n2)CC1 [compound 1171]
class [1]: 2 (Class 2: The value of percent of control at 10^−7 M was from 40% to 60% or the value of IC′50 was from 50 nM to 200 nM.)

COc1ccc(NC(=S)N[C@H]2CC[C@@H](Nc3nc4c(c(N(C)C)n3)CCCC4)CC2)c(C)c1 [compound 1776]
class [1]: 2 (Class 2: The value of percent of control at 10^−7 M was from 40% to 60% or the value of IC′50 was from 50 nM to 200 nM.)

CN(C)c1ccnc(N[C@H]2CC[C@@H](NC(=O)C(Cc3ccccc3)c3ccccc3)CC2)n1 (relative stereo) [compound 817]
class [1]: 3 (Class 3 The value of percent of control at 10^−7 M was more than 60% or the value of IC50 was more than 200 nM.)

CN(C)c1ccnc(N[C@H]2CC[C@@H](NC(=O)c3ccc(F)c(C(F)(F)F)c3)CC2)n1 [compound 324, N-(cis-4-{[4-(dimethylamino)pyrimidin-2-yl]amino}cyclohexyl)-4-fluoro-3-(trifluoromethyl)benzamide]
class [1]: 1 (Class 1: The value of percent of control at 10^−7 M was less than 40% or the value of IC50 was less than 50 nM.)

Cc1cc(N(C)C)nc(N[C@H]2CC[C@@H](C(=O)NCc3cc(Cl)cc(Cl)c3)CC2)n1 [compound 2810, cis-N-(3,5-dichlorobenzyl)-4-{[4-(dimethylamino)-6-methylpyrimidin-2-yl]amino}cyclohexanecarboxamide]
class (class by percent of control at 10^−7 M or IC50): 1 (Class 1: The value of percent of control at 10^−7 M was less than 40% or the value of IC50 was less than 50 nM.)

CN(C)c1ccnc(N[C@H]2CC[C@@H](CNCc3ccc4c(c3)OCCO4)CC2)n1 [compound 1263]
class [1]: 3 (Class 3 The value of percent of control at 10^−7 M was more than 60% or the value of IC50 was more than 200 nM.)

CC(C)c1ccccc1NC(=S)N[C@H]1CC[C@@H](Nc2nc3c(c(N(C)C)n2)CCCC3)CC1 [compound 1761]
class [1]: 3 (Class 3 The value of percent of control at 10^−7 M was more than 60% or the value of IC50 was more than 200 nM.)

COc1ccc(OC)c(CNC[C@H]2CC[C@@H](Nc3nc4c(c(N(C)C)n3)CCCC4)CC2)c1 [compound 1367]
class [1]: 2 (Class 2: The value of percent of control at 10^−7 M was from 40% to 60% or the value of IC′50 was from 50 nM to 200 nM.)

Cc1cccc(Cl)c1NC(=O)N[C@H]1CC[C@@H](Nc2nc3c(c(N(C)C)n2)CCCC3)CC1 [compound 1674]
class [2]: 3 (Class 3 The value of percent of control at 10^−7 M was more than 60% or the value of IC50 was more than 200 nM.)

CC(C)[C@@H]1CC[C@@H](C)CC1OC(=O)NC[C@H]1CC[C@@H](Nc2nccc(N(C)C)n2)CC1 (stereo partly shown) [compound 1653]
class [2]: 3 (Class 3 The value of percent of control at 10^−7 M was more than 60% or the value of IC50 was more than 200 nM.)

COc1cc(OC)cc(C(=O)N[C@H]2CC[C@@H](Nc3cc(C)c4ccccc4n3)CC2)c1 [Example 2553, 3,5-dimethoxy-N-{cis-4-[(4-methylquinolin-2-yl)amino]cyclohexyl}benzamide]
class: 1

Cc1cccc(C(C)C)c1NC(=O)NC[C@H]1CC[C@@H](Nc2nccc(N(C)C)n2)CC1 [compound 2425]
class [4]: 1 (Class 1: The value of percent of control at 10^−7 M was less than 40% or the value of IC50 was less than 50 nM.)

CN(C)c1ccnc(N[C@H]2CC[C@@H](NC(=O)Nc3c(Cl)cc(Cl)cc3Cl)CC2)n1 [compound 2189, N-(cis-4-{[4-(dimethylamino)pyrimidin-2-yl]amino}cyclohexyl)-N′-(2,4,6-trichlorophenyl)urea]
class [1]: 1 (Class 1: The value of percent of control at 10^−7 M was less than 40% or the value of IC50 was less than 50 nM.)

COc1cc([N+](=O)[O-])ccc1C(=O)N[C@H]1CC[C@@H](Nc2nc3c(c(N(C)C)n2)CCCC3)CC1 [compound 1047]
class [5]: 2 (Class 2: The value of percent of control at 10^−7 M was from 40% to 60% or the value of IC′50 was from 50 nM to 200 nM.)

CN(C)c1cc(N[C@H]2CC[C@@H](NC(=O)c3cc(F)cc(C(F)(F)F)c3)CC2)nc2ccccc12 [compound 38, N-(cis-4-{[4-(dimethylamino)quinolin-2-yl]amino}cyclohexyl)-3-fluoro-5-(trifluoromethyl)benzamide]
class [6]: 2 (Class 2: The value of percent of control at 10^−7 M was from 40% to 60% or the value of IC′50 was from 50 nM to 200 nM.)

CN(C)c1nc(N[C@H]2CC[C@@H](CNCc3ccc(O)cc3)CC2)nc2c1CCCC2 [compound 1396]
class [1]: 3 (Class 3 The value of percent of control at 10^−7 M was more than 60% or the value of IC50 was more than 200 nM.)

Cc1cc(C)c2occ(CN[C@H]3CC[C@@H](Nc4nc5c(c(N(C)C)n4)CCCC5)CC3)c(=O)c2c1 [compound 1350]
class [1]: 2 (Class 2: The value of percent of control at 10^−7 M was from 40% to 60% or the value of IC′50 was from 50 nM to 200 nM.)

CN(C)c1cc(N[C@H]2CC[C@@H](NC(=O)c3ccc(F)cc3)CC2)nc2ccccc12 [compound 37, N-(cis-4-{[4-(dimethylamino)quinolin-2-yl]amino}cyclohexyl)-4-fluorobenzamide]
class [6]: 1 (Class 1: The value of percent of control at 10^−7 M was less than 40% or the value of IC50 was less than 50 nM.)

CC(C)c1ccccc1NC(=O)NC[C@H]1CC[C@@H](Nc2nccc(N(C)C)n2)CC1 [compound 2426]
class [4]: 3 (Class 3 The value of percent of control at 10^−7 M was more than 60% or the value of IC50 was more than 200 nM.)

CN(C)c1nc(N[C@H]2CC[C@@H](CNCCc3ccc(Br)cc3)CC2)nc2c1CCCC2 [compound 1498]
class [1]: 3 (Class 3 The value of percent of control at 10^−7 M was more than 60% or the value of IC50 was more than 200 nM.)

Cc1cc(Br)cc(C)c1NC(=O)N[C@H]1CC[C@@H](Nc2nc3c(c(N(C)C)n2)CCCC3)CC1 [compound 1690, N-(4-bromo-2,6-dimethylphenyl)-N′-(cis-4-{[4-(dimethylamino)-5,6,7,8-tetrahydroquinazolin-2-yl]amino}cyclohexyl)urea]
class [2]: 1 (Class 1: The value of percent of control at 10^−7 M was less than 40% or the value of IC50 was less than 50 nM.)

CN(C)c1nc(N[C@H]2CC[C@@H](CNC(=O)c3ccc(I)cc3)CC2)nc2c1CCCC2 [compound 603]
class [1]: 3 (Class 3 The value of percent of control at 10^−7 M was more than 60% or the value of IC50 was more than 200 nM.)

Cc1cc([N+](=O)[O-])ccc1NC(=S)N[C@H]1CC[C@@H](Nc2cc(N(C)C)c3ccccc3n2)CC1 [compound 2291]
class [4]: 3 (Class 3 The value of percent of control at 10^−7 M was more than 60% or the value of IC50 was more than 200 nM.)

COc1ccc(NC(=O)N[C@H]2CC[C@@H](Nc3nc4c(c(N(C)C)n3)CCCC4)CC2)cc1OC1CCCC1 [compound 1733]
class [1]: 3 (Class 3 The value of percent of control at 10^−7 M was more than 60% or the value of IC50 was more than 200 nM.)

Cc1cc(N(C)C)nc(N[C@H]2CC[C@@H](NC(=O)c3ccc(F)c(F)c3)CC2)n1 [Example 2568, N-(cis-4-{[4-(dimethylamino)-6-methylpyrimidin-2-yl]amino}cyclohexyl)-3,4-difluorobenzamide]
class: 1

CN(C)c1ccnc(N[C@H]2CC[C@@H](CNCc3ccc(O)cc3Cl)CC2)n1 [compound 1267]
class [1]: 3 (Class 3 The value of percent of control at 10^−7 M was more than 60% or the value of IC50 was more than 200 nM.)

CN(C)c1nc(N[C@H]2CC[C@@H](NC(=O)c3cncc(Br)c3)CC2)nc2c1CCCC2 [compound 524, 5-bromo-N-(cis-4-{[4-(dimethylamino)-5,6,7,8-tetrahydroquinazolin-2-yl]amino}cyclohexyl)nicotinamide]
class [3]: 1 (Class 1: The value of percent of control at 10^−7 M was less than 40% or the value of IC50 was less than 50 nM.)

CN(C)c1cc(N[C@H]2CC[C@@H](CNC(=O)Nc3ccc(Cl)cc3C(F)(F)F)CC2)nc2ccccc12 [compound 2387]
class [4]: 3 (Class 3 The value of percent of control at 10^−7 M was more than 60% or the value of IC50 was more than 200 nM.)

CN(C)c1nc(N[C@H]2CC[C@@H](NC(=S)NC3CCCCCCCCCCC3)CC2)nc2c1CCCC2 [compound 2026]
class [6]: 3 (Class 3 The value of percent of control at 10^−7 M was more than 60% or the value of IC50 was more than 200 nM.)

CN(C)c1nc(N[C@H]2CC[C@@H](NC(=S)NC3CC3)CC2)nc2c1CCCC2 [compound 2029]
class [6]: 3 (Class 3 The value of percent of control at 10^−7 M was more than 60% or the value of IC50 was more than 200 nM.)

CN(C)c1nc(N[C@H]2CC[C@@H](CNC(=O)C(Cc3ccccc3)c3ccccc3)CC2)nc2c1CCCC2 (relative stereo) [compound 1066]
class [5]: 3 (Class 3 The value of percent of control at 10^−7 M was more than 60% or the value of IC50 was more than 200 nM.)

COc1cccc(OC)c1CNC[C@H]1CC[C@@H](Nc2nc3c(c(N(C)C)n2)CCCC3)CC1 [compound 1364]
class [1]: 1 (Class 1: The value of percent of control at 10^−7 M was less than 40% or the value of IC50 was less than 50 nM.)
